Reference: ChEMBL document CHEMBL1201862, “PubChem BioAssay data set” (2004)
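Following 48 hours of exposure in 96-well plates, responses at five concentrations were used to interpolate endpoints linearly. GI50 is the concentration that inhibits growth by half.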 Calls of active or inactive are those of the source. Cut-off read from the data, not from the text of the source: active = GI50 up to about 1.1 µM and inactive = higher.

Tests used:
Assay in all cases: NCI tumour cell line growth inhibition, 48 h
ACHN = test system: ACHN
CAKI-1 = test system: CAKI-1
CCRF-CEM = test system: CCRF-CEM
HL-60 = test system: HL-60
HOP-62 = test system: HOP-62
HOP-92 = test system: HOP-92
K562 = test system: K562
KM12 = test system: KM12
LOX IMVI = test system: LOX IMVI
M14 = test system: M14
Malme-3M = test system: Malme-3M
NCI-H23 = test system: NCI-H23
OVCAR-5 = test system: OVCAR-5
SK-OV-3 = test system: SK-OV-3
TK-10 = test system: TK-10
RPMI-8226 = test system: RPMI-8226
SR = test system: SR

Measured: GI50

Cc1ccccc1C(=O)c1ccccc1O
inactive: ACHN > 100 µM | CAKI-1 > 84.3 µM | CCRF-CEM > 100 µM | HL-60 > 100 µM | HOP-62 > 100 µM | HOP-92 > 100 µM | K562 > 100 µM | KM12 > 100 µM | LOX IMVI > 100 µM | M14 > 100 µM | Malme-3M > 100 µM | NCI-H23 > 100 µM | OVCAR-5 > 100 µM | SK-OV-3 > 100 µM | TK-10 > 100 µM

O=C(Nc1cc(Cl)ccc1Cl)c1cc2ccccc2oc1=O
inactive: ACHN 39.3 µM | CCRF-CEM 46.8 µM | HL-60 > 100 µM | HOP-62 45.6 µM | K562 > 100 µM | KM12 > 100 µM | LOX IMVI 61 µM | M14 > 100 µM | Malme-3M 18 µM | NCI-H23 > 100 µM | RPMI-8226 > 100 µM | SK-OV-3 38.9 µM | TK-10 > 100 µM

O=C(/C=N/O)Nc1cccc(Cl)c1I
inactive: ACHN 57.4 µM | CAKI-1 32.3 µM | CCRF-CEM 49.1 µM | HL-60 34.4 µM | HOP-62 83.4 µM | K562 53.5 µM | KM12 65.6 µM | LOX IMVI 96.8 µM | M14 47.2 µM | Malme-3M 40.6 µM | NCI-H23 59.2 µM | OVCAR-5 > 100 µM | RPMI-8226 30.6 µM | SK-OV-3 28.5 µM | SR 30.7 µM | TK-10 44.7 µM

NC1=NN(c2ccccc2)C(=O)C1C(=O)CCC(=O)Nc1cccc(C(F)(F)F)c1 (centres undefined)
inactive: ACHN 23.1 µM | CAKI-1 > 100 µM | CCRF-CEM > 100 µM | HL-60 > 100 µM | HOP-62 > 100 µM | HOP-92 > 100 µM | K562 35.2 µM | KM12 > 100 µM | LOX IMVI 72.4 µM | M14 41.2 µM | Malme-3M > 100 µM | NCI-H23 > 100 µM | OVCAR-5 > 100 µM | SK-OV-3 > 100 µM | SR > 100 µM | TK-10 > 100 µM

O=C1C[C@H]2CC3(CC[C@H]2CN1)OCCO3
inactive: CAKI-1 > 100 µM | CCRF-CEM > 100 µM | HL-60 > 100 µM | HOP-62 > 100 µM | HOP-92 > 100 µM | K562 > 100 µM | KM12 > 100 µM | LOX IMVI > 100 µM | M14 > 100 µM | Malme-3M > 100 µM | NCI-H23 > 100 µM | RPMI-8226 > 100 µM | SK-OV-3 > 100 µM | TK-10 > 100 µM

O=C(c1ccc([N+](=O)[O-])cc1[N+](=O)[O-])N(/N=C/C=C/c1ccccc1)c1nnc(-c2ccccc2)c(-c2ccccc2)n1
inactive: ACHN 24.3 µM | CAKI-1 25.4 µM | CCRF-CEM 24.5 µM | HL-60 21.6 µM | HOP-62 86.1 µM | HOP-92 20.5 µM | K562 20.1 µM | KM12 34.8 µM | LOX IMVI 35.7 µM | M14 30.6 µM | Malme-3M 43.8 µM | NCI-H23 27 µM | OVCAR-5 > 100 µM | RPMI-8226 20.5 µM | SK-OV-3 74.8 µM | TK-10 27.2 µM

CO/S(=N/S(=O)(=O)c1ccccc1)c1ccccc1[N+](=O)[O-] (centres undefined)
inactive: ACHN > 100 µM | CAKI-1 > 100 µM | CCRF-CEM > 100 µM | HOP-62 > 100 µM | K562 > 100 µM | KM12 > 100 µM | LOX IMVI > 100 µM | M14 > 100 µM | Malme-3M > 100 µM | NCI-H23 > 100 µM | OVCAR-5 > 100 µM | RPMI-8226 > 100 µM | SK-OV-3 > 100 µM | SR > 100 µM

O=C(CCC(=O)Nc1ccc(Cl)c(Cl)c1)CC(=O)c1ccc(Cl)cc1
inactive: ACHN > 100 µM | CAKI-1 > 100 µM | CCRF-CEM > 100 µM | HL-60 > 100 µM | HOP-92 24.8 µM | K562 > 100 µM | KM12 > 100 µM | LOX IMVI > 100 µM | M14 > 100 µM | Malme-3M > 100 µM | NCI-H23 > 100 µM | OVCAR-5 > 100 µM | RPMI-8226 > 100 µM | SK-OV-3 > 100 µM | TK-10 > 100 µM

O=c1[nH]c(=O)n(C2CC(O)C(CO)O2)cc1COCC(F)(F)F (centres undefined)
inactive: ACHN > 100 µM | CAKI-1 > 100 µM | CCRF-CEM 86.5 µM | HL-60 > 100 µM | HOP-62 > 100 µM | HOP-92 > 100 µM | K562 > 100 µM | KM12 > 100 µM | LOX IMVI > 100 µM | M14 > 100 µM | Malme-3M > 100 µM | NCI-H23 > 100 µM | OVCAR-5 > 100 µM | RPMI-8226 > 100 µM | SK-OV-3 > 100 µM | TK-10 > 100 µM

c1ccc(SCCCC(Sc2ccccc2)Sc2ccccc2)cc1
inactive: ACHN > 100 µM | CAKI-1 > 100 µM | CCRF-CEM > 100 µM | HL-60 > 100 µM | HOP-62 > 100 µM | HOP-92 49.9 µM | K562 > 100 µM | KM12 > 100 µM | LOX IMVI > 100 µM | M14 > 100 µM | NCI-H23 > 100 µM | RPMI-8226 > 100 µM | SK-OV-3 > 100 µM | SR > 100 µM | TK-10 > 100 µM

COC(=O)C1=CC(=O)[C@@H]2CCCC[C@H]12
inactive: ACHN > 100 µM | CAKI-1 > 100 µM | CCRF-CEM > 100 µM | HL-60 > 100 µM | HOP-62 > 100 µM | K562 > 100 µM | KM12 > 100 µM | M14 > 100 µM | Malme-3M > 100 µM | RPMI-8226 > 100 µM | SK-OV-3 > 100 µM | SR > 100 µM | TK-10 > 100 µM

C/C(CN1C(=O)c2ccccc2C1=O)=N\NS(=O)(=O)c1ccc(Br)cc1
inactive: ACHN > 100 µM | CAKI-1 > 100 µM | CCRF-CEM > 100 µM | HL-60 > 100 µM | HOP-62 > 100 µM | HOP-92 74.8 µM | K562 > 100 µM | KM12 > 100 µM | LOX IMVI > 100 µM | M14 > 100 µM | Malme-3M > 100 µM | NCI-H23 > 100 µM | OVCAR-5 > 100 µM | RPMI-8226 > 100 µM | SK-OV-3 > 100 µM | TK-10 > 100 µM

CC(C)(C)/N=C1/CC(C)(C)c2ccccc2/C(=N\c2ccccc2)S1
inactive: ACHN 28.2 µM | CAKI-1 40.2 µM | CCRF-CEM 26.9 µM | HL-60 12.2 µM | HOP-62 44.7 µM | K562 26.4 µM | KM12 26.8 µM | LOX IMVI 18.6 µM | M14 39.5 µM | Malme-3M 27.9 µM | NCI-H23 27.7 µM | OVCAR-5 37.9 µM | RPMI-8226 11.2 µM | SK-OV-3 57 µM | TK-10 75.9 µM
